Source: patent publication US6596863B2, “Medical composition containing nitroetheneamine Derivative or salt there of as active constituent” (Ishihara Sangyo Kaisha, Ltd., priority 1998, dated 2003)
Where two headings read alike, the source gives them in different places.

Key:
[1] = biological target: T1, human MMP-9 (gelatinase B) (Homo sapiens, UniProt P14780); assay: Inhibition activity against human MMP-9 (gelatinase B), fluorescent peptide substrate; assay type: biochemical
T1 construct: endogenous in cells; host or cells: HT1080 human fibrosarcoma cells (ATCC CCL-121), PMA-stimulated; enzyme purified from the culture supernatant
Method: Human MMP-9 (gelatinase B) was purified by the following method from a culture supernatant of HT1080 cells (human fibrosarcoma).
2.5×10^6 HT1080 cells (ATCC CCL-121, purchased from Dainippon Seiyaku) were inoculated to a tissue culture dish (Code No. 3020-100, manufactured by Iwaki Glass Co., Ltd.) having a diameter of 10 cm and containing 10 ml of Dulbecco's Modified Eagle Medium (DME, No. D-5648, manufactured by Sigma Co.) containing 10% fetal bovine serum (FBS: REHATUIN™, Code No. 1020-90, manufactured by Intergen Co.) and cultured for 72 hours at 37° C. in an atmosphere comprising 5% of CO2 and 95% of air (Carbon Dioxide Incubator LNA-122D Model, manufactured by Tabai Co.). Then, the medium was changed to 10 ml of a DME culture medium containing no FBS, and phorbol 12-myristate 13-acetate (PMA, code No. 163-114851, manufactured by Wako Pure Chemical Industries, Ltd.) was added so that the final concentration became 10 ng/ml. Under the same conditions, the culturing was carried out for further 20 hours, whereupon the culture supernatant was collected and subjected to cool centrifugation at 4° C. for 5 minutes (cool centrifugal separator, manufactured by Hitachi) to remove cell fragments.
The pH of a conditioned medium (50 ml) containing MMP-9, thus prepared, was adjusted to 8.0 with 0.2N NaOH. […] Namely, the above-mentioned conditioned medium was passed through DEAE-Sephacel (manufactured by Pharmacia, gel volume: about 35 ml) preliminarily equilibrated with 50 mM Tris-HCl, pH 8.0 (A buffer), and a non-adsorption fraction was collected. Then, it was added to Dye Matrix Gel Green A (manufactured by Amicon Co., gel volume: about 6 ml) preliminarily equilibrated with 50 mM Tris-HCl, pH 7.5/10 MM CaCl2/0.05% Brij 35/0.02% NaN3 (B buffer) and thoroughly washed with the same buffer, whereupon the adsorbed enzyme was eluted with a 1M NaCl-containing B buffer. About 7.5 ml of the eluted fraction was diluted twice with the B buffer and added to Gelatin-Sepharose 4B (manufactured by Pharmacia, gel volume: about 6 ml) preliminarily equilibrated with a 0.5 M NaCl-containing B buffer. It was thoroughly washed with a 0.5M NaCl-containing B buffer, and eluted with the B buffer containing 10% of dimethylsulfoxide (DMSO) and 0.5 M of NaCl. 5.5 ml of the eluted fraction was dialyzed against a 0.1 M NaCl-containing B buffer to obtain 5.2 ml of a purified enzyme solution. The purified MMP-9 standard product was confirmed to have a single band of 92 kDa by a protein staining by SDS electrophoresis, and further, it was confirmed to have an adequate gelatin decomposing activity by gelatinzymography (carried out in accordance with a method by Howard E. W. et al; Journal Biological Chemistry, Vol. 266, 13064-13069, 1991) and to have an adequate substrate decomposing activity by the after-mentioned measurement employing a fluorescent peptide substrate specific to MMP.
The inhibition activity against human MMP-9 was measured by the following method in accordance with the method by C. G. Knight et al (FEBS Letters, Vol, 296, 263-266, 1992) employing a fluorescent peptide substrate (7-methoxycoumarin-4-yl)Acetyl-Pro-Leu-Gly-Leu-(3-[2,4-dinitrophenyl]—Ala—Arg-NH2, Code 3163-VC, manufactured by Peptide Institute, Inc.
Further, as the case requires, commercially available human MMP-9 purified enzyme (No. YU-18003, manufactured by Kabushiki Kaisha Yagai Chuo Kenkyusho; used in a final concentration of from 0.0125 to 0.025 unit/ml, No. CC079, manufactured by Chemicon International, Inc.; used in a final concentration of 0.2 μg/ml) was used for the tests. […]

[2] = intermediates, compounds of the formula (IV), 1st measurement, read-out: MMP-9 inhibition activities IC50, 1st
[3] = intermediates, compounds of the formula (IV), average of 1st and 2nd (or single measurement), read-out: MMP-9 inhibition activities IC50, Average
[4] = compounds of the formula (I), 1st measurement, read-out: MMP-9 inhibition activities IC50, 1st
[5] = compounds of the formula (I), 2nd measurement, read-out: MMP-9 inhibition activities IC50, 2nd
[6] = compounds of the formula (I), average of 1st and 2nd (or single measurement), read-out: MMP-9 inhibition activities IC50, Average
[7] = intermediates, compounds of the formula (IV), 2nd measurement, read-out: MMP-9 inhibition activities IC50, 2nd

T1 sequence (P14780 107-707 limits assumed): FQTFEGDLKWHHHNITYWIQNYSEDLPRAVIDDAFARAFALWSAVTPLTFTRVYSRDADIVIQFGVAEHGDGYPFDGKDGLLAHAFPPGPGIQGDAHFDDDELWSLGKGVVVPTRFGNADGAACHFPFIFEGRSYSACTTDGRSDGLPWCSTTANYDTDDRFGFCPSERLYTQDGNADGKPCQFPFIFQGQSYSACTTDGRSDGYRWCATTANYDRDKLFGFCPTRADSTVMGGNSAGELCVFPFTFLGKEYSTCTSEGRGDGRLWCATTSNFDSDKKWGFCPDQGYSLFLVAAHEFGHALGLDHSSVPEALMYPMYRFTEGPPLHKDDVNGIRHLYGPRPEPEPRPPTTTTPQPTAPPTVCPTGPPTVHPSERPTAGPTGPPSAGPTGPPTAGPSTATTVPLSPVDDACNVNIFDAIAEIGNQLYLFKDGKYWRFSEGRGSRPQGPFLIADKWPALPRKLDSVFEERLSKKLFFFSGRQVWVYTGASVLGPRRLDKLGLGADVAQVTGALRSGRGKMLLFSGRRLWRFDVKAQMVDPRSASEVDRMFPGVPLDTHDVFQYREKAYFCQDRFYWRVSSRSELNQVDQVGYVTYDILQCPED

SMILES | IC50 [1, 2] | IC50 [1, 3] | IC50 [1, 4] | IC50 [1, 5] | IC50 [1, 6] | melting point | IC50 [1, 7]
CSC(=C[N+](=O)[O-])NS(C)(=O)=O (single isomer, unassigned) [Intermediate 64] | 4.4 µM | 4.4 µM | – | – | – | – | –
O=[N+]([O-])C=C(NNc1ccccc1)Nc1ccccc1 [Compound No. 2] | – | – | 45.1 µM | 24.7 µM | 34.9 µM | – | –
CNC(=C[N+](=O)[O-])NNc1cccc(Cl)c1 [Compound No. 9] | – | – | 42.2 µM | 43.9 µM | 43.1 µM | 191 °C (dec.) | –
CNC(=C[N+](=O)[O-])NNc1cccc(C)c1 [Compound No. 15] | – | – | 46.8 µM | 52.7 µM | 49.8 µM | 189 °C (dec.) | –
CNC(=C[N+](=O)[O-])NNc1ccc(C)cc1 [Compound No. 16] | – | – | 49.8 µM | 43.9 µM | 46.8 µM | 186 °C (dec.) | –
CNC(=C[N+](=O)[O-])NNc1ccc(C(F)(F)F)cn1 [Compound No. 19] | – | – | 10.1 µM | 13.2 µM | 11.7 µM | 207 °C (dec.) | –
CNC(=C[N+](=O)[O-])NN=Cc1ccccn1 [Compound No. 29, 2-pyridinecarbaldehyde 1-methylamino-2-nitroethenylhydrazone] | – | – | 30.8 µM | 24.5 µM | 27.7 µM | – | –
CNC(=C[N+](=O)[O-])NNc1c([N+](=O)[O-])c(C)nn1C [Compound No. 30] | – | – | 11.3 µM | 17.5 µM | 14.4 µM | 164 °C (dec.) | –
CNC(=C[N+](=O)[O-])NN(C)c1ncc(C(F)(F)F)cc1Cl [Compound No. 35, N-methyl-1-(2-methyl-2-(3-chloro-5-trifluoromethyl-2-pyridyl)hydrazino)-2-nitroetheneamine] | – | – | 14.6 µM | 22.1 µM | 18.4 µM | – | –
NNC(=C[N+](=O)[O-])Nc1ccc(OC(F)(F)F)cc1 [Compound No. 61, N-(1-hydrazino-2-nitroethenyl)-4-trifluoromethoxyaniline] | – | – | 39.7 µM | 42.2 µM | 40.9 µM | 161 °C (dec.) | –
CNC(=C[N+](=O)[O-])NNc1cc(C(F)(F)F)cc(OC)n1 [Compound No. 98, N-methyl-1-(2-(4-trifluoromethyl-6-methoxy-2-pyridyl)hydrazino)-2-nitroetheneamine] | – | – | 8.8 µM | 7.8 µM | 8.3 µM | 193 °C (dec.) | –
CNC(=C[N+](=O)[O-])NNc1cc(C(F)(F)F)cc(OCCN(C)C)n1 [Compound No. 100] | – | – | 38.7 µM | 26 µM | 32.4 µM | 125 to 126 °C (dec.) | –
CS(=O)(=O)NC(=C[N+](=O)[O-])NN1CCOCC1 [Compound No. 163, N-(1-(N-morpholino)amino-2-nitroethenyl)methanesulfonamide] | – | – | 9.2 µM | – | 9.2 µM | – | –
CSC(=C[N+](=O)[O-])NC1CC1 [Intermediate 2] | 31.4 µM | 45.7 µM | – | – | – | 101.5 to 106 °C | 59.9 µM
CSC(=C[N+](=O)[O-])NC1CCCC1 [Intermediate 3] | 21.3 µM | 29.3 µM | – | – | – | 82 to 87.5 °C | 37.3 µM
CNC(=C[N+](=O)[O-])SC [Intermediate 5] | 26.9 µM | 26.9 µM | – | – | – | – | –
CCNC(=C[N+](=O)[O-])SC [Intermediate 6] | 33 µM | 33 µM | – | – | – | – | –
CSC(=C[N+](=O)[O-])NC(C)C [Intermediate 10] | 26.9 µM | 36.8 µM | – | – | – | – | 46.6 µM
CSC(=C[N+](=O)[O-])Nc1ccc([N+](=O)[O-])cc1 [Intermediate 11] | 17.6 µM | 16.8 µM | – | – | – | 180 °C | 15.9 µM
CSC(=C[N+](=O)[O-])Nc1ccc(O)cc1 [Intermediate 12] | 25.3 µM | 24.9 µM | – | – | – | 193 °C (dec.) | 24.5 µM

SMILES | IC50 [1, 2] | IC50 [1, 3] | IC50 [1, 4] | IC50 [1, 5] | IC50 [1, 6] | melting point | IC50 [1, 7]
CSC(=C[N+](=O)[O-])Nc1ccc(Cl)cc1 [Intermediate 19] | 29.9 µM | 32.8 µM | – | – | – | – | 35.6 µM
COc1cccc(NC(=C[N+](=O)[O-])SC)c1 [Intermediate 20] | 38.9 µM | 44.3 µM | – | – | – | 118 to 121 °C | 49.6 µM
CSC(=C[N+](=O)[O-])Nc1ccc(F)cc1 [Intermediate 21] | 31.6 µM | 43 µM | – | – | – | 156 °C | 54.4 µM
COc1ccccc1NC(=C[N+](=O)[O-])SC [Intermediate 25] | 38.9 µM | 37.1 µM | – | – | – | 128 to 130 °C | 35.3 µM
COc1ccc(NC(=C[N+](=O)[O-])SC)cn1 [Intermediate 49] | 29.5 µM | 29.3 µM | – | – | – | 134 to 137 °C | 29 µM
CCOC(=O)c1ccc(NC(=C[N+](=O)[O-])SC)cc1 [Intermediate 50] | 33.9 µM | 29.6 µM | – | – | – | 116 to 123 °C | 25.3 µM
CSC(=C[N+](=O)[O-])NS(C)(=O)=O [Intermediate 57, N-(1-(methylthio)-2-nitroethenyl)methanesulfonamide] | 49.4 µM | 43.5 µM | – | – | – | – | 37.5 µM
CCS(=O)(=O)NC(=C[N+](=O)[O-])SC [Intermediate 59] | 11.4 µM | 11.4 µM | – | – | – | – | –
CONC(=C[N+](=O)[O-])SC [Intermediate 63] | 4.3 µM | 4.3 µM | – | – | – | – | –
CCCCCCCCNC(=C[N+](=O)[O-])NN [compound 46] | – | – | 36.2 µM | 34.8 µM | 35.5 µM | – | –
NNC(=C[N+](=O)[O-])Nc1ccc(Cl)cc1 [compound 51] | – | – | 27.3 µM | 32.1 µM | 29.7 µM | – | –
CNNC(=C[N+](=O)[O-])NC [compound 82] | – | – | 52.9 µM | 19 µM | 36 µM | – | –
CNC(=C[N+](=O)[O-])NN(C)C [compound 83] | – | – | 66.2 µM | 14.2 µM | 36 µM | – | –
CNC(=C[N+](=O)[O-])NNc1ccccc1 [compound 84] | – | – | 43.4 µM | 14.2 µM | 28.8 µM | – | –
CCCCNC(=C[N+](=O)[O-])NN [compound 85] | – | – | 52.8 µM | 41.1 µM | 47 µM | – | –
CC(C)NC(=C[N+](=O)[O-])NN [compound 88] | – | – | 37.7 µM | 57.5 µM | 47.6 µM | – | –
CNC(=C[N+](=O)[O-])NN [compound 93] | – | – | 48.3 µM | 44.8 µM | 46.6 µM | – | –
CNC(=C[N+](=O)[O-])NNc1cc(C(F)(F)F)ncn1 [compound 97] | – | – | 45.7 µM | 35.3 µM | 40.5 µM | – | –
CNC(=C[N+](=O)[O-])NNS(C)(=O)=O [compound 108] | – | – | 15 µM | 35 µM | 25 µM | – | –
C=C1C(C)=NN/C(=C\[N+](=O)[O-])N1c1ccccc1 [compound 155] | – | – | 24.3 µM | 43.5 µM | 33.9 µM | – | –
